This note sets out measurements from patent publication US20260092073A1, “NOVEL COMPOUNDS” (Hoffmann-La Roche Inc., priority 2023, published 2026).

Test [1] addresses T1, NLRP3 (Homo sapiens, UniProt Q96P20). Nature of the test: THP-1 cells pyroptosis assay. Type of test: cell-based. More on the design: Seed THP-1 cells (25,000 cells/well) containing 1.0 μg/ml LPS; host or cells: THP-1 cells, LPS-primed, nigericin-stimulated. The settings on record: LPS 1.0 μg/ml, nigericin 5 μM, resazurin readout. From the text:
It is well established that the activation of NLRP3 leads to cell pyroptosis and this feature plays an important part in the manifestation of clinical disease (Yan-gang Liu et al., Cell Death & Disease, 2017, 8(2), e2579; Alexander Wree et al., Hepatology, 2014, 59(3), 898-910; Alex Baldwin et al., Journal of Medicinal Chemistry, 2016, 59(5), 1691-1710; Ema Ozaki et al., Journal of Inflammation Research, 2015, 8, 15-27; Zhen Xie & Gang Zhao, Neuroimmunology Neuroinflammation, 2014, 1(2), 60-65; Mattia Cocco et al., Journal of Medicinal Chemistry, 2014, 57(24), 10366-10382; T. Satoh et al., Cell Death & Disease, 2013, 4, e644). Therefore, it is anticipated that inhibitors of NLRP3 will block pyroptosis, as well as the release of pro-inflammatory cytokines (e.g. […]) from the cell.
THP-1 cells (ATCC #TIB-202) were grown in RPMI containing L-glutamine (Gibco #11835) supplemented with 1 mM sodium pyruvate (Sigma #S8636) and penicillin (100 units/ml)/streptomycin (0.1 mg/ml) (Sigma #P4333) in 10% Fetal Bovine Serum (FBS) (Sigma #F0804). The cells were routinely passaged and grown to confluency (˜10^6 cells/ml). On the day of the experiment, THP-1 cells were harvested and resuspended into RPMI medium (without FBS). The cells were then counted and viability (>90%) checked by Trypan blue (Sigma #T8154). Appropriate dilutions were made to give a concentration of 625,000 cells/ml. To this diluted cell solution was added LPS (Sigma #L4524) to give a […] Final Assay Concentration (FAC). 40 μl of the final preparation was aliquoted into each well of a 96-well plate. The plate thus prepared was used for compound screening.
The following method step-by-step assay was followed for compound screening.
Seed THP-1 cells (25,000 cells/well) containing 1.0 μg/ml LPS in 40 μl of RPMI medium (without FBS) in 96-well, black walled, clear bottom cell culture plates coated with poly-D-lysine (VWR #734-0317)
Add 5 μl compound (8 points half-log dilution, with 10 μM top dose) or vehicle (DMSO 0.1% FAC) to the appropriate wells
(§1) Incubate for 3 hours at 37° C., 5% CO2
Add 5 μl nigericin (Sigma #N7143) (FAC 5 μM) to all wells
(§2) Incubate for 1 hr at 37° C., 5% CO2
At the end of the incubation period, spin plates at 300 xg for 3 mins and remove supernatant
Then add 50 μl of resazurin (Sigma #R7017) (FAC 100 μM resazurin in RPMI medium without FBS) and incubate plates for a further 1-2 hours at 37° C. and 5% CO2
Plates were read in an Envision reader at Ex 560 nm and Em 590 nm
(§3) IC50 data is fitted to a non-linear regression equation (log inhibitor vs response-variable slope 4-parameters)

For test [2], the target named is T1, NLRP3. Nature of the test: Human whole blood IL-1β release assay. More on the design: Human whole blood in Li-heparin tubes was obtained from healthy donors; from tissue; host or cells: human whole blood from healthy donors. As to conditions: LPS, nigericin 10 μM, IL-1β by AlphaLisa. It is filed as cell-based. The protocol:
For systemic delivery, the ability to inhibit NLRP3 when the compounds are present within the bloodstream is of great importance. For this reason, the NLRP3 inhibitory activity of a number of compounds in human whole blood was investigated in accordance with the following protocol.
Human whole blood in Li-heparin tubes was obtained from healthy donors from a volunteer donor panel.
Plate out 80 μl of whole blood containing […] of LPS in 96-well, clear bottom cell culture plate (Corning #3585)
Add 10 μl compound (8 points half-log dilution with 10 μM top dose) or vehicle (DMSO 0.1% FAC) to the appropriate wells
as §1
Add 10 μl nigericin (Sigma #N7143) (10 μM FAC) to all wells
as §2
At the end of the incubation period, spin plates at 300 xg for 5 mins to pellet cells and remove 20 μl of supernatant and add to 96-well v-bottom plates for IL-1β analysis (note: these plates containing the supernatants can be stored at −80° C. to be analysed at a later date)
IL-1β was measured according to the manufacturer protocol (Perkin Elmer-AlphaLisa IL-1 Kit AL220F-5000)
as §3

T1 sequence (Q96P20 whole entry): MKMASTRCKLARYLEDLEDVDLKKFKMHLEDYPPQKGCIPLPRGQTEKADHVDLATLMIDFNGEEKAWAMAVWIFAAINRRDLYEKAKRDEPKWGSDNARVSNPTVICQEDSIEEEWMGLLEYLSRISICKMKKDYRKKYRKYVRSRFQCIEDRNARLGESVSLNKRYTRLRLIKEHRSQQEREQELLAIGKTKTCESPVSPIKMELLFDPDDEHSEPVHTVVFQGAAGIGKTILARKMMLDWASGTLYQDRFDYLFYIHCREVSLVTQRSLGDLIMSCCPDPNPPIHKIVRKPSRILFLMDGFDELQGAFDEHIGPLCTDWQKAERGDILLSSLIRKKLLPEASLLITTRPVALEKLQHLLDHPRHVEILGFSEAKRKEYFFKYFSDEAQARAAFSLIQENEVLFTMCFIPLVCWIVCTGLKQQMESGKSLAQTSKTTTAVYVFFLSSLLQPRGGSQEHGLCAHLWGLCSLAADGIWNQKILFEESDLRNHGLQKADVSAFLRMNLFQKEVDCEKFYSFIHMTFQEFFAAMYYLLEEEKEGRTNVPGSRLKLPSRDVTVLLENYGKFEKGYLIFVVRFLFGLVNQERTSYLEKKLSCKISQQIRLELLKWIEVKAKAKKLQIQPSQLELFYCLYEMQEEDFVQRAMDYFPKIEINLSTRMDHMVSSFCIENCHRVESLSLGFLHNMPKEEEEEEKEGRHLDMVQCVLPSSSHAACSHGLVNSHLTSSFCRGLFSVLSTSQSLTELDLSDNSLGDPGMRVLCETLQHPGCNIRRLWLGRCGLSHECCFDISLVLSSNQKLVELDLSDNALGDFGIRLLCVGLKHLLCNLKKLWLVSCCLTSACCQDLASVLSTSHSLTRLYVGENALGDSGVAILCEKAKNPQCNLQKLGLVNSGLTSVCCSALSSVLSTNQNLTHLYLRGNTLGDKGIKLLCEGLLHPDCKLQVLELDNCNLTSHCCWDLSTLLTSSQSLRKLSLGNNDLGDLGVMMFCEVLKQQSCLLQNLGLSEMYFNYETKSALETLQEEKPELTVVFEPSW

Regarding `CCN1C[C@@H](O)C[C@@H](Nc2nc3nc(-c4c(C)cc(C#N)cc4O)cnc3o2)C1` [Example 17, 4-[2-[[(3R,5S)-1-Ethyl-5-hydroxy-3-piperidyl]amino]oxazolo[4,5-b]pyrazin-5-yl]-3-hydroxy-5-methyl-benzonitrile], the IC50 against NLRP3 [1] turned out to be 3 nM; on NLRP3 [2] it was 18 nM.

Consider `COc1cc(-c2c(C)cc3c(c2O)CCO3)nc2nc(N[C@@H]3CCCN(CCO)C3)oc12` [Example 22, 5-[2-[[(3R)-1-(2-Hydroxyethyl)-3-piperidyl]amino]-7-methoxy-oxazolo[4,5-b]pyridin-5-yl]-6-methyl-2,3-dihydrobenzofuran-4-ol], for which the IC50 against NLRP3 [1] worked out at 5 nM; against NLRP3 [2] it was 39 nM.

As to `Cc1cc(C#N)cc(O)c1-c1ccc2oc(N[C@@H]3CCCN(CCc4ncco4)C3)nc2n1` [Example 4, 3-Hydroxy-5-methyl-4-[2-[[(3R)-1-(2-oxazol-2-ylethyl)-3-piperidyl]amino]oxazolo[4,5-b]pyridin-5-yl]benzonitrile], the results for the IC50 against NLRP3 [1] and at NLRP3 [2] were 26.1 nM and 192 nM, respectively.

In the case of `CCN1C[C@@H](O)C[C@@H](Nc2nc3nc(-c4c(C)cc(C#N)cc4O)cnc3o2)C1` [Example 2, 4-[2-[[(3R,5S)-1-Ethyl-5-hydroxy-3-piperidyl]amino]oxazolo[4,5-b]pyrazin-5-yl]-3-hydroxy-5-methyl-benzonitrile;2,2,2-trifluoroacetic Acid], the IC50 is 4.3 nM against NLRP3 [1] and 19.6 nM at NLRP3 [2].

Turning to `COCc1cc(C#N)cc(O)c1-c1ccc2oc(N[C@@H]3CCCN(CCO)C3)nc2n1` [Example 3, 3-Hydroxy-4-[2-[[(3R)-1-(2-hydroxyethyl)-3-piperidyl]amino]oxazolo[4,5-b]pyridin-5-yl]-5-(methoxymethyl)benzonitrile], the IC50 on NLRP3 [1] is 27.9 nM; against NLRP3 [2], 35.2 nM.

As for `Cc1cc(C#N)cc(O)c1-c1cnc2oc(N[C@@H]3C[C@H](O)CN(C)C3)nc2n1` [Example 7, 3-Hydroxy-4-[2-[[(3R,5S)-5-hydroxy-1-methyl-3-piperidyl]amino]oxazolo[4,5-b]pyrazin-5-yl]-5-methyl-benzonitrile;2,2,2-trifluoroacetic Acid], the IC50 worked out at 10 nM on NLRP3 [1] and 17 nM against NLRP3 [2].

Regarding `CCN1C[C@@H](O)C[C@@H](Nc2nc3nc(-c4c(C)cc(C#N)cc4O)cc(OC)c3o2)C1` [Example 30, 4-[2-[[(3R,5S)-1-Ethyl-5-hydroxy-3-piperidyl]amino]-7-methoxy-oxazolo[4,5-b]pyridin-5-yl]-3-hydroxy-5-methyl-benzonitrile], the IC50 on NLRP3 [1] came to 13 nM; against NLRP3 [2], 48 nM.

Regarding `COc1cc(-c2c(C)cc(C#N)cc2O)nc2nc(N[C@@H]3CCCN(CCO)C3)oc12` [Example 16, 3-Hydroxy-4-[2-[[(3R)-1-(2-hydroxyethyl)-3-piperidyl]amino]-7-methoxy-oxazolo[4,5-b]pyridin-5-yl]-5-methyl-benzonitrile], the IC50 amounted to 8 nM against NLRP3 [1] and 22 nM against NLRP3 [2].

For `Cc1cc(C(F)(F)F)cc(O)c1-c1ccc2oc(N[C@@H]3C[C@H](O)CN(CCO)C3)nc2n1` [Example 6, (3S,5R)-1-(2-Hydroxyethyl)-5-[[5-[2-hydroxy-6-methyl-4-(trifluoromethyl)phenyl]oxazolo[4,5-b]pyridin-2-yl]amino]piperidin-3-ol], the IC50 is 12 nM at NLRP3 [1] and 95 nM against NLRP3 [2].

`COc1cc(-c2c(C)cc3c(c2O)CCC3)nc2nc(N[C@@H]3CCCN(CCO)C3)oc12` [Example 19, 5-[2-[[(3R)-1-(2-Hydroxyethyl)-3-piperidyl]amino]-7-methoxy-oxazolo[4,5-b]pyridin-5-yl]-6-methyl-indan-4-ol] came in with an IC50 against NLRP3 [1] of 4 nM.

As to `Cc1cc(C#N)cc(O)c1-c1ccc2oc(N[C@H]3CNC[C@@H](O)C3)nc2n1` [Example 9, 3-Hydroxy-4-[2-[[(3R,5S)-5-hydroxy-3-piperidyl]amino]oxazolo[4,5-b]pyridin-5-yl]-5-methyl-benzonitrile], the half-inhibitory concentration (IC50) turned out to be 45 nM against NLRP3 [1] and 84 nM on NLRP3 [2].

Take `Cc1cc(C#N)cc(O)c1-c1cc(F)c2oc(N[C@@H]3CCCN(CCO)C3)nc2n1` [Example 29, 4-[7-Fluoro-2-[[(3R)-1-(2-hydroxyethyl)-3-piperidyl]amino]oxazolo[4,5-b]pyridin-5-yl]-3-hydroxy-5-methyl-benzonitrile]: the values for the IC50 against NLRP3 [1] and on NLRP3 [2] were 7 nM and 124 nM, respectively.

On to `COCc1cc2c(c(O)c1-c1cc(OC)c3oc(N[C@@H]4CCCN(CCO)C4)nc3n1)CCO2` [Example 21, 5-[2-[[(3R)-1-(2-Hydroxyethyl)-3-piperidyl]amino]-7-methoxy-oxazolo[4,5-b]pyridin-5-yl]-6-(methoxymethyl)-2,3-dihydrobenzofuran-4-ol], for which the IC50 at NLRP3 [1] came to 9 nM.

For the molecule `CCN1C[C@@H](O)C[C@@H](Nc2nc3nc(-c4c(C)cc5c(c4O)CCO5)cnc3o2)C1` [Example 25, (3S,5R)-1-Ethyl-5-[[5-(4-hydroxy-6-methyl-2,3-dihydrobenzofuran-5-yl)oxazolo[4,5-b]pyrazin-2-yl]amino]piperidin-3-ol], the IC50 against NLRP3 [1] turned out to be 2 nM; against NLRP3 [2], 16 nM.

Take `Cc1cc(C(F)(F)F)cc(O)c1-c1ccc2oc(N[C@@H]3C[C@H](O)CN(CCCC(=O)O)C3)nc2n1` [Example 5, 4-[(3S,5R)-3-Hydroxy-5-[[5-[2-hydroxy-6-methyl-4-(trifluoromethyl)phenyl]oxazolo[4,5-b]pyridin-2-yl]amino]-1-piperidyl]butanoic Acid]: the figures for the IC50 at NLRP3 [1] and against NLRP3 [2] were 51 nM and 432 nM, respectively.

With `CCN1C[C@@H](O)C[C@@H](Nc2nc3nc(-c4c(O)cc(C#N)cc4COC)cnc3o2)C1` [Example 23, 4-[2-[[(3R,5S)-1-Ethyl-5-hydroxy-3-piperidyl]amino]oxazolo[4,5-b]pyrazin-5-yl]-3-hydroxy-5-(methoxymethyl)benzonitrile;2,2,2-trifluoroacetic Acid], the IC50 was determined as 44 nM against NLRP3 [1] and 34 nM against NLRP3 [2].

For the molecule `Cc1cc(C#N)cc(O)c1-c1cnc2oc(N[C@@H]3CCCN(CCO)C3)nc2n1` [Example 10, 3-Hydroxy-4-[2-[[(3R)-1-(2-hydroxyethyl)-3-piperidyl]amino]oxazolo[4,5-b]pyrazin-5-yl]-5-methyl-benzonitrile], the IC50 turned out to be 5 nM at NLRP3 [1] and 29 nM against NLRP3 [2].

In the case of `COc1cc(-c2c(C)cc(C#N)cc2O)nc2nc(N[C@@H]3CCCN(CCO)C3)oc12` [Example 8, 3-Hydroxy-4-[2-[[(3R)-1-(2-hydroxyethyl)-3-piperidyl]amino]-7-methoxy-oxazolo[4,5-b]pyridin-5-yl]-5-methyl-benzonitrile;2,2,2-trifluoroacetic Acid], the 50% inhibitory concentration (IC50) on NLRP3 [1] was 11 nM; against NLRP3 [2], 28 nM.

Turning to `CCN1C[C@@H](O)C[C@@H](Nc2nc3nc(-c4c(C)cc(C#N)cc4O)cc(F)c3o2)C1` [Example 27, 4-[2-[[(3R,5S)-1-Ethyl-5-hydroxy-3-piperidyl]amino]-7-fluoro-oxazolo[4,5-b]pyridin-5-yl]-3-hydroxy-5-methyl-benzonitrile], the figures for the IC50 against NLRP3 [1] and against NLRP3 [2] were 6 nM and 95 nM, respectively.
